21 compounds from ChEMBL document CHEMBL3865850, “Discovery of Potent and Selective Leads against Toxoplasma gondii Dihydrofolate Reductase via Structure-Based Design” (ACS Med Chem Lett, 2016) can be followed below.

Test [1] has as its target T1, Dihydrofolate reductase (Homo sapiens, UniProt P00374).
T1 sequence (P00374 whole entry): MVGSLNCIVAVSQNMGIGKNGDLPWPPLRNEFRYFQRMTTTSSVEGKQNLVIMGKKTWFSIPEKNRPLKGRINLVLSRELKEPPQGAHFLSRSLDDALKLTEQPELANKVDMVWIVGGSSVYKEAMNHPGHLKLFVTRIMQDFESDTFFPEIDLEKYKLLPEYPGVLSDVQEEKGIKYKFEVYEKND
Description: Inhibition of recombinant human DHFR expressed in Escherichia coli preincubated for 15 mins followed by addition of DHF as substrate and NADPH measured after 60 mins by resazurin/diaphorase coupled assay. Background: The colour change of resazurin is a common sign of viable cells or microbes.

For test [2], the target named is T2, Bifunctional dihydrofolate reductase-thymidylate synthase (Toxoplasma gondii, UniProt Q07422).
T2 sequence (Q07422 whole entry): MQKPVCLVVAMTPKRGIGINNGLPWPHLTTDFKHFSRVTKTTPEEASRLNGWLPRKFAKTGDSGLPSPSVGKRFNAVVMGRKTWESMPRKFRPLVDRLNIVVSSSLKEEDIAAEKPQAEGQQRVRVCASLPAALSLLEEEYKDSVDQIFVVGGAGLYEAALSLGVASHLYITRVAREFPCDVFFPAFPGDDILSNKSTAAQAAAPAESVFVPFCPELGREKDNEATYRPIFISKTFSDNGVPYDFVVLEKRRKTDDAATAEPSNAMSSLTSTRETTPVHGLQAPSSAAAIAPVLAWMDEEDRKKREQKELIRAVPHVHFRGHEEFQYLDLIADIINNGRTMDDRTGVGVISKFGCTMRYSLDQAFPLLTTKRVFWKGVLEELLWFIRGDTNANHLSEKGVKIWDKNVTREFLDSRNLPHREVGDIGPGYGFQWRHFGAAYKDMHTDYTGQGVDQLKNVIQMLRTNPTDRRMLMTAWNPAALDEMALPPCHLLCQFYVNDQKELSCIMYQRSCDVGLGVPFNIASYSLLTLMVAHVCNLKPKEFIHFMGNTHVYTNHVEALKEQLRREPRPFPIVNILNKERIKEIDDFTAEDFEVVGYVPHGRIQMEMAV
The experiment in a line: Inhibition of Toxoplasma gondii TS-DHFR expressed in Escherichia coli BL21 preincubated for 15 mins followed by addition of DHF as substrate and NADPH measured after 60 mins by resazurin/diaphorase coupled assay. Type of test: cell-free.

Test [3] can be described thus: Selectivity ratio of IC50 for human DHFR to IC50 for Toxoplasma gondii DHFR.

Molecules are shown by their SMILES.

Take `Cc1nc(N)nc(N)c1C(=O)N1CCN(c2cc(Cl)ccc2-c2ccccn2)CC1`: the IC50 (as a rule, the concentration that inhibits the measured activity by half) is more than 10 µM in test [1] and more than 10000 nM in test [2].

In the case of `Cn1c(-c2cccc(Cl)c2)cc2c(Cl)nc(N)nc21`, the half-maximal inhibitory concentration (IC50) in test [1] was more than 10 µM; in test [2], more than 10000 nM.

As for `Nc1nc(N)c(-c2c[nH]c3ccccc23)c(C2CC2)n1`, the IC50 in test [1] was 2.5 µM; in test [2], 910 nM. For the same compound, in test [3], the Ratio IC50 stood at 2.9.

Consider `Cc1nc(N)nc(N)c1CN1CCN(c2cc(Cl)ccc2-c2ccccn2)CC1`, for which the IC50 in test [1] came out at 2.1 µM; in test [2] it was 370 nM. Also, in test [3], the Ratio IC50 was determined as 6.5.

Turning to `Cc1nc(N)nc(N)c1C(=O)N1CCN(c2cccc(-c3cccc(C#N)c3)c2)CC1`, the IC50 in test [1] was more than 10 µM; in test [2] it was 3000 nM. Besides, the Ratio IC50 in test [3] is more than 3.3.

Regarding `Nc1ncc(Cn2ccc3c(-c4ccc(C(F)(F)F)cc4)cccc32)c(N)n1`, the half-inhibitory concentration (IC50) was more than 10 µM in test [1] and 2700 nM in test [2]. For the same compound, in test [3], the Ratio IC50 was more than 3.5.

Turning to `Cc1nc(N)nc(N)c1CN1CCN(c2cccc(-c3ccccc3)c2)CC1`, the IC50 amounted to 1.1 µM in test [1] and 1100 nM in test [2]. Besides, the Ratio IC50 in test [3] is 1.

In the case of `Nc1ncc(CN2CCCN(C(=O)c3cccc(C(F)(F)F)c3)CC2)c(N)n1`, the IC50 in test [1] was more than 10 µM; in test [2], more than 10000 nM.

As to `Nc1ncc(CN2CCN(c3cccc(C(F)(F)F)c3)CC2)c(N)n1`, the values for the concentration for half-maximal inhibition (IC50) in test [1] and in test [2] were 9.2 µM and 80000 nM, respectively. The Ratio IC50 in test [3] was 0.12.

Turning to `Cc1nc(N)nc(N)c1CN1CCN(c2cccc(-c3cccc(C#N)c3)c2)CC1`, the IC50 in test [1] was 0.92 µM; in test [2], 200 nM. Moreover, the Ratio IC50 in test [3] was determined as 4.7.

Take `Cc1nc(N)nc(N)c1C(=O)N1CCN(c2cccc(-c3ccccc3)c2)CC1`: the IC50 in test [1] is more than 10 µM; in test [2], 2400 nM. In addition, the Ratio IC50 in test [3] is more than 4.

In the case of `Nc1ncc(Cn2cc(-c3ccc(F)c(F)c3)c3cnccc32)c(N)n1`, the IC50 in test [1] was more than 10 µM; in test [2], more than 10000 nM.

As for `Nc1ncc(N2CCN(c3ccc(Cl)c(Cl)c3)CC2)c(N)n1`, the results for the concentration for half-maximal inhibition (IC50) in test [1] and in test [2] were 0.092 µM and 17 nM, respectively. Further, the Ratio IC50 in test [3] came to 10.

`Nc1nc(Cl)c2cc(-c3cccc(Cl)c3)[nH]c2n1`: the 50% inhibitory concentration (IC50) in test [1] was 4.2 µM; in test [2] it was more than 10000 nM. Besides, in test [3], the Ratio IC50 is less than 1.

With `Cn1cc(-c2c(N)nc(N)nc2C2CC2)c2ccccc21`, the results for the IC50 in test [1] and in test [2] were 2.8 µM and 460 nM, respectively. Moreover, the Ratio IC50 in test [3] amounted to 6.1.

As to `Nc1nc2[nH]c(-c3cccc(Cl)c3)cc2c(=O)[nH]1`, the half-maximal inhibitory concentration (IC50) in test [1] was more than 10 µM; in test [2], more than 10000 nM.

In the case of `COc1ccc(-c2c[nH]c3nc(N)nc(OC(C)C)c23)cc1C(F)(F)F`, the results for the IC50 in test [1] and in test [2] were more than 10 µM and more than 10000 nM, respectively.

Consider `Nc1ncc(Cn2cc(-c3cccc(Cl)c3)c3cccnc32)c(N)n1`, for which the IC50 in test [1] is more than 10 µM; in test [2], more than 10000 nM.

As for `Nc1ncc(CN2CCN(c3cc(Cl)ccc3OCc3cccc(C(F)(F)F)c3)CC2)c(N)n1`, the IC50 in test [1] is more than 75 µM; in test [2], 950 nM. Further, the Ratio IC50 in test [3] is more than 80.

Regarding `Nc1ncc(Cn2cc(-c3cccc(C(F)(F)F)c3)c3ccccc32)c(N)n1`, the IC50 in test [1] was more than 10 µM; in test [2], 980 nM. The Ratio IC50 in test [3] is more than 10.

`Cn1c(-c2cccc(Cl)c2)cc2c(N)nc(N)nc21`: the figures for the half-inhibitory concentration (IC50) in test [1] and in test [2] were more than 10 µM and more than 10000 nM, respectively.
